“And” between values parts separate entries of the source, which are not always exact repeats. Equal entries are not always repeated.
Experiments:
[1] = tested on: BlaC; details: cited from earlier work
[2] = Prodrug aqueous stability at pH 7.4, 6.0 and 1.2; type: physicochemical
[3] = cited from earlier work
[4] = cited from earlier work; remark: listed apart in the source

O=C(O)[C@H]1/C(=C/CO)O[C@@H]2CC(=O)N21 [clavulanate]
inhibition of BlaC [1]: irreversibly inhibited

CC(OC(=O)O[C@H]1CCCCc2ccccc21)OC(=O)C1=C(S[C@@H]2CN[C@H](C(=O)N(C)C)C2)[C@H](C)[C@@H]2[C@@H]([C@@H](C)O)C(=O)N12 (stereo partly drawn) [Compound 23a, (1S,1′S/R)-Benzosuber-1-yloxycarbonyloxyethyl (1R,5S,6S)-2-{[(2S,4S)-2-(N,N-dimethylcarbamoyl)pyrrolidin-4-yl]thio}-6-[(1R)-1-hydroxyethyl]-1-methylcarbapen-2-em-3-carboxylate]
improvement of stability relative to prodrug 19 ([2]; 100 µM): about 2 fold

C[C@@H](O)[C@H]1C(=O)N2C(C(=O)OCOC(=O)O[C@@H]3CCc4ccccc43)=C(S[C@@H]3CN[C@H](C(=O)N(C)C)C3)[C@H](C)[C@H]12 [Compound 20, (R)-Indan-1-yloxycarbonyloxymethyl (1/R, 5S,6S)-2-{[(2S,4S)-2-(N,N-dimethylcarbamoyl)pyrrolidin-4-yl]thio}-6-[(1/R)-1-hydroxyethyl]-1-methylcarbapen-2-em-3-carboxylate]
half-life at 100 µM ([2]; buffer, pH 7.4): < 1 min

CC(C)OC(=O)OC(C)OC(=O)C1=C(S[C@@H]2CN[C@H](C(=O)N(C)C)C2)[C@H](C)[C@@H]2[C@@H]([C@@H](C)O)C(=O)N12 (some centres unmarked) [Compound 2]
% of each diastereomer hydrolyzed to 1 ([2]; physiological pH 7.4, period of 2 hours): 10% and 13%

C[C@@H](O)[C@H]1C(=O)N2C(C(=O)OCOC(=O)O[C@H]3CCCCc4ccccc43)=C(S[C@@H]3CN[C@H](C(=O)N(C)C)C3)[C@H](C)[C@H]12 [Compound 19, (S)-Benzosuber-1-yloxycarbonyloxymethyl (1R, 5S,6S)-2-{[(2S,4S)-2-(N,N-dimethylcarbamoyl)pyrrolidin-4-yl]thio}-6-[(1R)-1-hydroxyethyl]-1-methylcarbapen-2-em-3-carboxylate]
times more stable to hydrolysis compared with 1-tetralyl (18 and 21) and 1-indanyl (17 and 20) prodrugs ([2]; intestinal pH): 37 times
times more stable to hydrolysis compared with 1-tetralyl (18 and 21) and 1-indanyl (17 and 20) prodrugs ([2]; physiological pH): 20 times

CC(=O)N1C[C@@H](SC2=C(C(=O)OCOC(=O)O[C@H]3CCCCc4ccccc43)N3C(=O)[C@H]([C@@H](C)O)[C@H]3[C@H]2C)C[C@H]1C(=O)N(C)C [Compound 24a, (S)-Benzosuber-1-yloxycarbonyloxymethyl (1R,5S,6S)-2-{[(2S,4S)-1-acetyl-2-(N,N-dimethylcarbamoyl)pyrrolidin-4-yl]thio}-6-[(1R)-1-hydroxyethyl]-1-methylcarbapen-2-em-3-carboxylate]
change in the hydrolysis rate relative to prodrug 19 ([2]; N-acetyl derivative, aqueous buffers): no significant change

C[C@@H](O)[C@H]1C(=O)N2C(C(=O)OCOC(=O)O[C@@H]3CCCCc4ccccc43)=C(S[C@@H]3CN[C@H](C(=O)N(C)C)C3)[C@H](C)[C@H]12 [Compound 22, (R)-Benzosuber-1-yloxycarbonyloxymethyl (1R,5S, 6S)-2-{[(2S,4S)-2-(N,N-dimethylcarbamoyl)pyrrolidin-4-yl]thio}-6-[(1R)-1-hydroxyethyl]-1-methylcarbapen-2-em-3-carboxylate]
times more stable to hydrolysis compared with 1-tetralyl (18 and 21) and 1-indanyl (17 and 20) prodrugs ([2]; intestinal pH): 37 times
times more stable to hydrolysis compared with 1-tetralyl (18 and 21) and 1-indanyl (17 and 20) prodrugs ([2]; physiological pH): 20 times

C[C@@H](O)[C@H]1C(=O)N2C(C(=O)O)=C(S[C@@H]3CN[C@H](C(=O)N(C)C)C3)[C@H](C)[C@H]12 [Meropenem]
oral absorption [3]: negligible
Log D [4]: < −2.5

From article PMC3740032 (Bioorganic & medicinal chemistry, 2013)
